Assay results published in patent US20230000773A1, “NOVEL HEADGROUP LIPID COMPOUNDS AND COMPOSITIONS FOR INTRACELLULAR DELIVERY OF THERAPEUTIC AGENTS” (ModernaTX, Inc., priority 2019, published 2023).
Counter-ions that a name gives are not always drawn.

Key:
[1] = Apparent LNP pKa by 2-(p-toluidino)-6-napthalene sulfonic acid (TNS) assay; format: physicochemical; conditions: pH at half of maximum fluorescence
[2] = Surface hydrophobicity by Generalized Polarization by Laurdan (GPL); format: physicochemical; conditions: normalized Generalized Polarization by Laurdan; higher N-GP = less polar surface
From the text: Nanoparticle compositions including a therapeutic and/or prophylactic can be optimized according to the selection of a compound according to Formula (I), (I-1), (A), (A-1), (A-1a), or (A-1b), the selection of additional lipids, the amount of each lipid in the lipid component, and the wt:wt ratio of the lipid component to the therapeutic and/or prophylactic. Nanoparticle compositions including DSPC as a phospholipid, cholesterol as a structural lipid, PEG 2 as a PEG lipid, and a compound according to Formula (I), (I-1), (A), (A-1), (A-1a), or (A-1b) were prepared. The ratios of the lipids were 50:10:38:2 mol % for the lipid according to Formula (I), (I-1), (A), (A-1), (A-1a), or (A-1b):DSPC:cholesterol:PEG 2.
Laurdan, a fluorescent aminonaphthalene ketone lipid, was post-inserted into the nanoparticle surface and the fluorescence spectrum of Laurdan was collected to determine the normalized Generalized Polarization (N-GP). Higher N-GP indicates a less polar surface.

[3] = Heparin-sepharose binding of nanoparticles
hEPO mRNA = test: hEPO expression in CD1-mice after intravenous administration of nanoparticles; format: in vivo; conditions: 6 h after intravenous administration, mRNA dose 0.5 mg/kg, N:P 3.4, compound:DSPC:cholesterol:PEG 2 50:10:38:2
Procedure: The expression of hEPO mRNA in CD1-mice was measured 6 h after intravenous administration of nanoparticles comprising a compound of the disclosure, DSPC, cholesterol, and PEG 2 in a ratio of 50:10:38:2. […] Each composition was dosed to 8 animals at an mRNA dose of 0.5 mg/kg.

Compound	LogIC50 (pKa) [1]	Average N-GP [2]	Relative % Area Bound by LNP [3] [%]	Avg. [hEPO] mIU/mL (hEPO mRNA) [mIU/mL]
CCCCCCCCC(CC)OC(=O)CCCCCCCN(CCCCCCCC(=O)OC(CCCCCCCC)CCCCCCCC)CCCN/C=C1\NC(=O)NC1=O (mixture of isomers) [Compound 51/52, Heptadecan-9-yl (E/Z)-8-((3-(((2,5-dioxoimidazolidin-4-ylidene)methyl)amino)propyl)(8-oxo-8-(undecan-3-yloxy)octyl)amino)octanoate]	6.48	0.921	2.25	1.86E+05
CCCCCCCCC(CC)OC(=O)CCCCCCCN(CCCCCCCC(=O)OC(CCCCCCCC)CCCCCCCC)CCCN/C(=N/O)c1nonc1N (racemic) [Compound 55/56, Heptadecan-9-yl (E/Z)-8-((3-(4-amino-N′-hydroxy-1,2,5-oxadiazole-3-carboximidamido)propyl)(8-oxo-8-(undecan-3-yloxy)octyl)amino)octanoate]	5.61	–	0	1.37E+05
CCCCCCCCC(CC)OC(=O)CCCCCCCN(CCCCCCCC(=O)OC(CCCCCCCC)CCCCCCCC)CCCNc1nnc(N)[nH]1 (stereo not drawn) [Compound 11, Heptadecan-9-yl 8-((3-((5-amino-4H-1,2,4-triazol-3-yl)amino)propyl)(8-oxo-8-(undecan-3-yloxy)octyl)amino)octanoate]	6.88	–	–	1.69E+04
CCCCCCCCC(CC)OC(=O)CCCCCCCN(CCCCCCCC(=O)OC(CCCCCCCC)CCCCCCCC)CCCNC(C(=O)NC)C(=O)NC (stereo not drawn) [Compound 16, Heptadecan-9-yl 8-((3-((1,3-bis(methylamino)-1,3-dioxopropan-2-yl)amino)propyl)(8-oxo-8-(undecan-3-yloxy)octyl)amino)octanoate Trifluoroacetate Salt]	7.01	0.595	57.65	1.72E+05
CCCCCCCCC(CC)OC(=O)CCCCCCCN(CCCCCCCC(=O)OC(CCCCCCCC)CCCCCCCC)CCCNc1nccnc1NC (stereo not drawn) [Compound 25, Heptadecan-9-yl 8-((3-((3-(methylamino)pyrazin-2-yl)amino)propyl)(8-oxo-8-(undecan-3-yloxy)octyl)amino)octanoate, trifluoroacetate Salt]	7.46	0.869	0	4.29E+05
CCCCCCCCC(CC)OC(=O)CCCCCCCN(CCCCCCCC(=O)OC(CCCCCCCC)CCCCCCCC)CCCNS(=O)(=O)c1ncccn1 (stereo not drawn) [Compound 73, Heptadecan-9-yl 8-((8-oxo-8-(undecan-3-yloxy)octyl)(3-(pyrimidine-2-sulfonamido)propyl)amino)octanoate]	6.61	0.747	0	4.64E+05
CCCCCCCCC(CC)OC(=O)CCCCCCCN(CCCCCCCC(=O)OC(CCCCCCCC)CCCCCCCC)CCCNS(=O)(=O)Cc1ccccc1 (stereo not drawn) [Compound 74, Heptadecan-9-yl 8-((8-oxo-8-(undecan-3-yloxy)octyl)(3-((phenylmethyl)sulfonamido)propyl)amino)octanoate]	6.42	0.938	6.14	1.21E+05
CCCCCCCCC(CC)OC(=O)CCCCCCCN(CCCCCCCC(=O)OC(CCCCCCCC)CCCCCCCC)CCCNS(=O)(=O)c1ccnn1COC (stereo not drawn) [Compound 75, Heptadecan-9-yl 8-((3-((1-(methoxymethyl)-1H-pyrazole)-5-sulfonamido)propyl)(8-oxo-8-(undecan-3-yloxy)octyl)amino)octanoate]	6.50	0.831	1.97	6.24E+05
CCCCCCCCC(CC)OC(=O)CCCCCCCN(CCCCCCCC(=O)OC(CCCCCCCC)CCCCCCCC)CCCNC(=O)CS(=O)(=O)NC (stereo not drawn) [Compound 76, Heptadecan-9-yl 8-((3-(2-(N-methylsulfamoyl)acetamido)propyl)(8-oxo-8-(undecan-3-yloxy)octyl)amino)octanoate]	6.92	0.683	31.61	1.50E+05
CCCCCCCCC(CC)OC(=O)CCCCCCCN(CCCCCCCC(=O)OC(CCCCCCCC)CCCCCCCC)CCCNC1=NS(=O)(=O)CCN1 (stereo not drawn) [Compound 77, Heptadecan-9-yl 8-((3-((1,1-dioxido-5,6-dihydro-4H-1,2,4-thiadiazin-3-yl)amino)propyl)(8-oxo-8-(undecan-3-yloxy)octyl)amino)octanoate]	6.80	0.824	0	7.75E+04
CCCCCCCCC(CC)OC(=O)CCCCCCCN(CCCCCCCC(=O)OC(CCCCCCCC)CCCCCCCC)CCCNC(=O)C1CCC(=O)N1 (stereo not drawn) [Compound 78, Heptadecan-9-yl 8-((8-oxo-8-(undecan-3-yloxy)octyl)(3-(5-oxopyrrolidine-2-carboxamido)propyl)amino)octanoate]	6.94	0.622	36.14	1.11E+05
CCCCCCCCC(CC)OC(=O)CCCCCCCN(CCCCCCCC(=O)OC(CCCCCCCC)CCCCCCCC)CCCNC1=NC(=O)NC1 (stereo not drawn) [Compound 79, Heptadecan-9-yl 8-((3-((2-oxo-2,5-dihydro-1H-imidazol-4-yl)amino)propyl)(8-oxo-8-(undecan-3-yloxy)octyl)amino)octanoate]	6.23	0.683	0	4.04E+04
CCCCCCCCC(CC)OC(=O)CCCCCCCN(CCCCCCCC(=O)OC(CCCCCCCC)CCCCCCCC)CCCNS(=O)(=O)CC(=O)NC (stereo not drawn) [Compound 80, Heptadecan-9-yl 8-((3-((2-(methylamino)-2-oxoethyl)sulfonamido)propyl)(8-oxo-8-(undecan-3-yloxy)octyl)amino)octanoate]	6.75	0.703	10.99	7.69E+04
CCCCCCCCC(CC)OC(=O)CCCCCCCN(CCCCCCCC(=O)OC(CCCCCCCC)CCCCCCCC)CCCNC1=C(C#N)C(=O)OC1 (stereo not drawn) [Compound 81, Heptadecan-9-yl 8-((3-((4-cyano-5-oxo-2,5-dihydrofuran-3-yl)amino)propyl)(8-oxo-8-(undecan-3-yloxy)octyl)amino)octanoate Trifluoroacetate Salt]	6.48	0.752	0	4.96E+05
CCCCCCCCC(CC)OC(=O)CCCCCCCN(CCCCCCCC(=O)OC(CCCCCCCC)CCCCCCCC)CCCNc1nnc(N)s1 (stereo not drawn) [Compound 82, Heptadecan-9-yl 8-((3-((5-amino-1,3,4-thiadiazol-2-yl)amino)propyl)(8-oxo-8-(undecan-3-yloxy)octyl)amino)octanoate Trifluoroacetate Salt]	6.25	0.920	1.67	2.18E+05
CCCCCCCCC(CC)OC(=O)CCCCCCCN(CCCCCCCC(=O)OC(CCCCCCCC)CCCCCCCC)CCCN/C=N/S(C)(=O)=O (stereo not drawn) [Compound 86, Heptadecan-9-yl (E)-8-((3-(N′-(methylsulfonyl)formimidamido)propyl)(8-oxo-8-(undecan-3-yloxy)octyl)amino)octanoate]	6.59	0.737	0	–
